Assay results taken from PMC11111895, “Identification of a dCache-type chemoreceptor in Campylobacter jejuni that specifically mediates chemotaxis towards methyl pyruvate” (Frontiers in Microbiology, 2024).
Like-named read-outs stand apart in the source and are kept apart here.

Key:
[1] = target: Tlp11-LBD homologue (WP_066386874.1, residues 33-320); assay: MST of Tlp11-LBD homologue; format: binding, Helicobacter himalayensis; conditions: H. himalayensis LBD
Description: (§1) The His-tag dye (MO-L018 RED-tris-NTA, NanoTemper, Germany) was adjusted to a final concentration of 25 nM and used to label the purified protein with a His-tag. The compound was diluted to a series of concentrations in phosphate-buffered saline ([Duan et al., 2023]) with 0.05% Tween 20 (PBS-T) buffer and mixed in a ratio of 1:1 with protein. The mixtures were loaded into capillaries (Monolith™ Series capillaries, NanoTemper) by means of capillary action. Thermophoresis was measured using a Monolith™ NT.115 (NanoTemper) instrument, with 40% excitation and 40% MST power configuration. The time-traces of changes in fluorescence, which reflected the thermophoretic movement of labeled protein affected by different concentrations of compound were recorded, and the dose–response curves were fitted with the ‘temperature jump and thermophoresis’ mode. Data analysis was performed using MO. Affinity Analysis version 2.3 (NanoTemper) and Prism version 8.0.2 (GraphPad Software, United States).
(§2) To evaluate whether these potential Tlp11-LBD homologues could bind to methyl pyruvate, we conducted a structural analysis of the LBDs of six chemoreceptors from C. coli, H. equorum, H. himalayensis, H. mesocricetorum, H. ganmani, and C. upsaliensis using Alphafold 2. […]

Tlp11-LBD Y291A = assay: MST of Tlp11-LBD mutant Y291A; format: binding, C. jejuni ATCC 33560; conditions: max ligand 2.5 mM
Description: as §1
(§3) In order to confirm the contribution of L264, N268, I276, Y291, V318, and T320 to the binding to methyl pyruvate, we generated Tlp11-LBD proteins with an alanine point mutation at individual residues, to obtain the mutant proteins L264A, N268A, I276A, Y291A, V318A, and T320A, and then analyzed the binding affinities of methyl pyruvate to these mutants using MST. […]

Tlp11-LBD T320A = assay: MST of Tlp11-LBD mutant T320A; format: binding, C. jejuni ATCC 33560; conditions: max ligand 2.5 mM
Description: as §1, §3

Tlp11-LBD = assay: Microscale thermophoresis (MST) of Tlp11-LBD; format: binding, C. jejuni ATCC 33560
Description: as §1
MST quantifies interaction affinities by detecting the direct movement of fluorescent molecules along temperature gradients in capillaries. Ligand binding changes the thermophoretic movement of proteins, which can be used to derive Kds, by sequentially scanning capillaries with different ligand concentrations. MST has been applied to the study of weak binding systems and validated to provide reliable results ([Linke et al., 2016]; [Gao et al., 2021]). […] We also tested the binding abilities of methyl pyruvate analogues to Tlp11-LBD using MST (Supplementary Table S3).

Tlp11-LBD L264A = assay: MST of Tlp11-LBD mutant L264A; format: binding, C. jejuni ATCC 33560; conditions: max ligand 2.5 mM
Description: as §1, §3

Tlp11-LBD I276A = assay: MST of Tlp11-LBD mutant I276A; format: binding, C. jejuni ATCC 33560; conditions: max ligand 2.5 mM
Description: as §1, §3

[2] = target: Tlp11-LBD homologue (WP_201459806.1, residues 32-332); assay: MST of Tlp11-LBD homologue; format: binding, Campylobacter coli; conditions: C. coli LBD
Description: as §1, §2

COC(=O)C(C)=O [methyl pyruvate, Methyl pyruvate]
Kd [1]: 1100 ± 300 µM
Kd (binding curve fit) (Tlp11-LBD Y291A): unable to obtain fitted Kd values
Kd (binding curve fit) (Tlp11-LBD T320A): unable to obtain fitted Kd values
Kd (Tlp11-LBD; 250 nM protein, methyl pyruvate at pH 7.0, read-out: Kd of Tlp11-LBD binding): 688 ± 140 µM
Kd (Tlp11-LBD; Tlp11-LBD saturated with 5 mM quinoline, read-out: Kd of Tlp11-LBD interacting with methyl pyruvate): 3900 ± 1100 µM
Kd (Tlp11-LBD; Tlp11-LBD saturated with 5 mM toluene, read-out: Kd of Tlp11-LBD interacting with methyl pyruvate): 18000 ± 3000 µM
Kd (binding curve fit) (Tlp11-LBD L264A): unable to obtain fitted Kd values
Kd (binding curve fit) (Tlp11-LBD I276A): unable to obtain fitted Kd values
Kd [2]: 1400 ± 500 µM
